Experimental data: patent US12564601B2, “Methods for treating hepatitis B infection” (priority 2017, dated 2026)
Like-named read-outs stand apart in the source and are kept apart here.

Key:
[1] = test system: HBV; experiment: Entecavir combination study in HBV-expressing mouse (HDI model); format: in vivo, mice; conditions: for circulating (plasma) HBsAg / hepatic viral RNAs (liver HBV mRNA and pgRNA): HDI model; for circulating (plasma) HBsAg: ELISA; for hepatic viral RNAs (liver HBV mRNA and pgRNA): qPCR
Experimental: The RNAi oligonucletoides targeting the S antigen impact both the viral polymerase and HBsAg protein. In this study, the combinational effects of HBV(s)-219P2 as a monotherapy and combinational treatment with entecavir was explored in an HBV-expressing mouse (HDI model) for antiviral activity.
Mice were administered daily oral dosing of 500 ng/kg Entecavir (ETV) for 14 days. A single subcutaneous administration of HBV(s)-219P2 took place. Circulating viral load (HBV DNA) was measured by qPCR (FIG. 15A), plasma HBsAg level was measured by ELISA (FIG. 15B), and liver HBV mRNA and pgRNA levels were measured by qPCR.

[2] = test system: HBsAg viral transcript; experiment: HBsAg levels in HDI-mice after subcutaneous HBV-254; format: in vivo
Experimental: Preclinical potency was further evaluated in mice following a QW×3 dosing regimen in which HBV-254 was subcutaneously administered at 3 mg/kg (FIG. 3). The administration points are indicated by arrows in the figure. HBsAg levels were monitored in both oligonucleotide treated and untreated control mice for a period spanning 147 days.

[3] = test system: HBV Genotype A S ORF reporter sequence; experiment: psiCHECK2 dual-luciferase reporter mismatch assay in HeLa cells; format: cell-based
From the text: A psiCHECK-2 dual-luciferase reporter system was utilized to evaluate the effects of a mismatch at a selected position in each of HBV-217, HBV-219, HBV-254, HBV-255, and HBV-258. The psiCHECK vector enables monitoring of changes in expression of a target gene fused to a reporter gene, where active RNAi degrades the fusion construct to produce a corresponding decrease in reporter signal. The diagram in FIG. 6 generically depicts the vector utilized in these assays. The parent partial reporter sequence contained 120 base-pair fragments from Genotype A (GenBank: AM282986.1) around target sites of interest in the S ORE. […]
The psiCHECK2 reporter assays with each oligonucleotide were conducted over a three-day period using a 6-point, 5-fold serial dilution starting at 1 nM transfected in HeLa cells. […] The cells were then incubated at 37° C. in a CO2 incubator until the cells were ready to harvest and assay for the target gene. On day 3, 100 μL of Dual-Glo Reagent was added to each well, mixed and incubated for 10 minutes before reading the luminescence. A further 100 μL of Dual-Glo Stop & Glo was added to each well, mixed and incubated for 10 minutes before reading the luminescence. […] The EC50s values determined for each oligonucleotide are shown in Table 3 with additional specifications.

[4] = test system: HBsAg mRNA; experiment: Time course of HBsAg mRNA expression in HDI model of HBV; format: in vivo, mouse; conditions: three once-weekly doses of 3 mg/kg
Experimental: The durational effects of the HBV(s)-219P1 oligonucleotide were examined in two different mouse models of HBV—an HDI model, which is cccDNA-dependent, and an AAV model, which is cccDNA independent. A time course (12 weeks) analysis of HBsAg mRNA expression was performed in the context of a treatment involving three once-weekly doses of 3 mg/kg with the HBV(s)-219P1 oligonucleotide targeting HBsAg mRNA compared with vehicle control and an RNAi oligonucleotide targeting HBxAg mRNA in the HDI model of HBV (FIG. 12A).

[5] = test system: HBsAg; experiment: Plasma HBsAg suppression, S- versus X-targeting oligonucleotides, HDI model; format: in vivo, mice; conditions: single saturating 9 mg/kg SC dose, n=3
Experimental: In this study, HBV-expressing mice (HDI model) were administered HBV(s)-219P2, GalXC-HBVX (same sequence as the GalXC-HBVX used in FIGS. 12A and 12B), or a combination of the two RNAi oligonucleotides and plasma HBsAg level two weeks or nine weeks post dose were monitored.

Molecule: C=C1[C@H](CO)[C@@H](O)C[C@@H]1n1cnc2c(=O)[nH]c(N)nc21 [entecavir, Entecavir]
- mean decrease in HBV DNA in plasma relative to PBS ([1]; 500 ng/kg PO daily for 14 days, n=6): ~1.6 log
- circulating (plasma) HBsAg [1]: No significant decrease
- circulating (plasma) HBsAg ([1]; listed as ETV): no efficacy
- hepatic viral RNAs (liver HBV mRNA and pgRNA) [1]: No significant decrease
- hepatic viral RNAs (liver HBV mRNA and pgRNA) ([1]; listed as ETV): no efficacy

Molecule: HBV-254: HBsAg-targeting duplex oligonucleotide, sense strand SEQ ID NO: 23, antisense strand SEQ ID NO: 24 (sense GUGGUGGACUUCUCUCAAUAGCAGCCGAAAGGCUGC; antisense UAUUGAGAGAAGUCCACCACGG; listed as RNA, chemistry not given here)
- HBsAg levels relative to control ([2]; QW×3, 3 mg/kg subcutaneous, monitored 147 days (FIG. 3)): Diminished HBsAg levels persisted in treated mice throughout the entirety of the study
- HBsAg levels ([2]; single dose evaluation, subcutaneous, HDI-mice (FIG. 2)): systematically reduced HBsAg levels in mice with increasing dosage
- EC50 ([3]; mismatch duplex, single mismatch to reporter at stated guide position, read-out: MM EC50s): 0.096 nM
- EC50 ([3]; parent duplex, 100% homology to reporter, read-out: Parent EC50s): 0.037 nM

Molecule: GalXC-HBVX: RNAi oligonucleotide targeting HBxAg mRNA, sense strand SEQ ID NO: 39, antisense strand SEQ ID NO: 40 (sense UGCACUUCGCGUCACCUCUAGCAGCCGAAAGGCUGC; antisense UAGAGGUGACGCGAAGUGCAGG; GalNAc conjugate (GalXC), modification pattern not given here)
- duration of activity [4]: shorter duration
- reduction of HBsAg mRNA expression ([4]; 12-week time course): ~3.0 log
- plasma HBsAg suppression 9 weeks post dose / duration [5]: significant recovery of HBsAg
